This passage reports Kd and binding results from PMC12080312 (2025).

Assay [1] has as its system N1MA1a (DNA, aptamer) GACGACACATAATTGTTGATCCACTGTTTATTAGGTGTCGTC
The experiment in a line: ITC. The following applies: 500 mM Na+, 20 mM Mg2+; 50 mM Tris, pH 7.6, 25 °C; abstract prints 0.75 ± 0.04.

Assay [2] relates to N1MA2a (DNA, aptamer) GACGACAAGGTTGCTGGTCTGGTACAGAGATAGTTCGTCGTC
The experiment in a line: ITC. The following applies: 500 mM Na+, 20 mM Mg2+; 50 mM Tris, pH 7.6, 25 °C.

For assay [3], the system named is AdeApt (classical adenosine aptamer) (DNA, aptamer) ACCTGGGGGAGTATTGCGGAGGAAGGT
The experiment in a line: ThT fluorescence displacement. The following applies: 500 mM Na+, 20 mM Mg2+; Kd could not be fitted; 50 mM Tris, pH 7.6; ThT tracer.

Take `Cn1cnc2c(ncn2[C@@H]2O[C@H](CO)[C@@H](O)[C@H]2O)c1=N`: the Kd was determined as 0.75 ± 0.07 µM in assay [1] and 7.3 ± 7.5 µM in assay [2]. In addition, the binding entry in assay [3] was “weak”.

The Kd is the equilibrium constant for the complex coming apart. Lower therefore signals tighter binding.
